Assay results reported in patent US10899815B2, “Compositions and methods of using islet neogenesis peptides and analogs thereof” (SHENZHEN HIGHTIDE BIOPHARMACEUTICAL, LTD., priority 2013, dated 2021).
Ends that are not written are not given here.

What was measured:
[1] = Peptide stability in mouse plasma; format: in vitro ADME; settings: 100 μg/mL, 37° C., LC-MS/MS, FIG. 3 and FIG. 5
Description: The stability of peptides was also tested in mouse and human plasma. Briefly, a certain amount of peptides and eucatropine powder (positive control) was accurately weighed. Test compounds were dissolved in 50% methanol-water solution and diluted to 20 mg/mL, and eucatropine was dissolved in dimethylsulfoxide (DMSO) and diluted to 10 mM, as a stock solution. Eucatropine stock solution was diluted to 0.2 mM with DMSO as a working solution. A stop reagent was prepared containing 200 ng/mL midazolam and tolbutamide in acetonitrile. A volume of 300 μL of stop solution was added to each well of a 96-well deep-well plate placed on ice beforehand.
For the stability studies, peptides and eucatropine were spiked into plasma respectively, mixed well, and then 100 μL of each mixture solution was transferred into the pre-cooled stop reagent as 0 time point sample. The remaining mixtures were incubated in a 37° C. water bath with shaking at 100 rpm (n=2). The final incubation concentration was 1 μM for eucatropine and 100 μg/mL for all test compounds.
At desired time points, 100 μl, of incubation mixture was transferred to the stop reagent to precipitate proteins. Samples were vortexed and centrifuged at RCF 5000-g for 10 minutes, and supernatant was transferred to a test plate. The samples were analyzed by LC-MS/MS.
Slope was calculated by plotting the natural logarithm of the percentage or remaining amount of test compounds and time, and T12 was calculated in accordance with the following formula.
For stability in mouse plasma, the incubation time was 0, 5, 15, 30 and 60 min for Peptide 1 and eucatropine, 0, 15, 30, 60, 120, 240 and 480 min for Peptide 12, Peptide 16 and Peptide 29.
In another stability study in mouse plasma, the incubation time was 0, 30, 60 and 120 min for Peptide 2 and eucatropine; 0, 30, 60, 120, 240 and 960 min for Peptide 52 and Peptide 54.

pancreatic islets = assay: Glucose-stimulated insulin secretion (GSIS) of isolated islets; format: cell-based, Sprague-Dawley (SD) rats; settings: rat islets, 12.0 mM glucose, 10 μg/mL peptide (GLP-1 100 nM), 60 min, FIG. 8
Description: The pancreases were procured from male adult Sprague-Dawley (SD) rats. After 7 days acclimation, the animals were sacrificed by cervical dislocation and the entire pancreas was removed and digested with collagenase to isolate islets. After digestion, islets were maintained at 37° C. in RPMI 1640 (Carlsbad, Calif., USA) pH 7.4, containing 10% (v/v) fetal calf serum, 1% penicillin/streptomycin, and 10 mM glucose in a humid atmosphere (5% CO2/95% O2), without the addition of any compound (control), or with the addition of 100 nM glucagon like peptide-1 (GLP-1); or 10 μg/mL Peptide 1, Peptide 12, or Peptide 16, as summarized in Table 4 below. Cultured islets were rinsed in Krebs-Ringer bicarbonate buffer (KRB), pH 7.4, previously gassed with a mixture CO2/O2 (5/95%), and pre-incubated in 1.0 ml KRB containing 0.5% (w/v) BSA and 1.5 mM glucose at 37° C. for 45 min. After this period, groups of 5 islets were incubated in 0.6 ml KRB with the addition of 1.5 or 12.0 mM glucose, with or without the addition of peptides for 60 min. At the end of the incubation period, aliquots of the medium were collected for insulin quantitation.

Pharmacokinetics in rat = format: in vivo, Sprague-Dawley (SD) rats; settings: rat, in vivo, 25 mg/kg
Description: After 7 days acclimation, male Sprague-Dawley (SD) rats weighing 210-250 g, or male C57BL/6 mice, weighing 19-24 g, in good health were used in the study. Peptide 1, Peptide 12 and Peptide 16 were dissolved in sterile normal saline and then they were injected via subcutaneous (sc) bolus or intravenous (iv) bolus at the dose level of 25 mg/kg. Three animals in each group were used for blood collection at the time point of 5 min, 15 min, 30 min, 1 h, 2 h, 4 h, 6 h, 8 h and 24 h post-dose. Blood samples (approximately 400 μL) were collected and placed into tubes containing EDTA-K2 and centrifuged at 8000 rpm for 6 minutes at 4° C. to separate plasma front the samples. The resulting plasma was stored frozen at −80° C. until being analyzed. Plasma concentrations of peptides were determined using tandem mass spectrometry (LC-MS/MS) analysis. A non-compartmental module of WinNonlin® Professional 5.2 (Pharsight; St. Louis, Mo.), was used to calculate PK parameters. The abbreviation AUC(0-t) represents area under the curve front the time of dosing to the time of the last observation, the AUC(0-∞) represents area under the curve from the time of dosing to infinity, and the Cmax represents maximum concentration detected.

[2] = Peptide stability in culture medium; format: physicochemical; settings: F-12K medium, 0.25 mg/mL, 37° C., 0-72 hours, HPLC, FIG. 2
Description: To determine the stability of peptides in culture medium, a certain amount of selected peptides was accurately weighed and dissolved in distilled water to 5 mg/mL as a stock solution. The stock solution was diluted to 0.25 mg/mL with F-12K medium (Gibco-BRL, Gaithersburg, Md., USA) as working solution. A volume of 100 μL of each working solution was transferred into individual sample vials. The sample vials were incubated in a 37° C. incubator for 0, 24, 48 and 72 hours before being analyzed and quantitated by HPLC.

ARIP cells = assay: ARIP cell proliferation (BrdU ELISA / CellTiter-Glo); format: cell-based, rat; settings: 100 nM peptide, FIG. 1
Description: To measure cell proliferation, a bromodeoxyuridine (BrdU) ELISA assay was performed. Briefly, ARIP cells (ATCC (American Type Culture Collection), Manassas, Va. USA), a rat pancreatic ductal cell line, were cultured in F-12K medium (Gibco-BRL, Gaithersburg, Md., USA) containing 10% fetal bovine serum (FBS; HyClone, Thermo Fisher Scientific Inc.; Waltham, Mass. USA), 100 μg/ml streptomycin and 100 μg/ml penicillin in a cell incubator. ARIP cells were seeded into 96-well culture plates at 8000 or 0 (as blank control) cells/well in a volume of 50 μl cell culture medium and incubated overnight for the following experiments. On the second day, after replacing the medium with medium without serum, 50 μl serum-free cell culture medium containing test peptides at a series concentrations (final concentrations were 10 μM, 5 μM, 1 μM, 500 nM, 100 nM, 50 nM, 10 nM and 1 nM) were added to seeded cells. Medium without compound was added to negative control and background control wells. […] The absorbance at 450 nm (reference wavelength 690 nm) on an EnVision™ plate reader (Perkin Elmer, Boston, Mass.) within 5 min. after adding the stop solution was measured.
To test for cell viability, a CellTiter-Glo™ (CTG) assay (Promega, Madison, Wis.) was performed. […] Luminescence signal was quantified on an EnVision™ plate reader after a 10 minute incubation at room temperature.

[3] = test system: STZ induced diabetic mice model; assay: Efficacy in streptozotocin (STZ) induced diabetic mice model; format: in vivo, C57BL/6J mice; settings: for body weight or pancreas weight: 5 mg/kg or 25 mg/kg for 20 days
Description: After acclimatization in the animal facility for one week, 6-8 weeks old C57BL/6J mice were administered low dose STZ at 40 mg/kg in citrate buffer for 5 consecutive days to establish a TID animal model. Mice with blood glucose greater than 16.7 mmol/L at 5 days post last STZ injection were included in the study. These mice were then treated with INGAP-PP (Peptide 1) or Peptide 7 at the closes of 5 mg/kg (2.5 mg/kg, bid (twice a day)) or 25 mg/kg (12.5 mg/kg, bid) for 20 days before sacrifices. Two additional groups of diabetic mice were administered either saline or a peptide (Peptide 3) composed of a scrambled sequence of amino acids from Peptide 1 as control groups. Blood glucose and insulin levels were measured, and 20 days post the last dosing of test agents, an oral glucose tolerance test (OGTT) was performed in 6 hour fasted animals to determine the effect of Peptide 1 and Peptide 7. Blood samples obtained from the tail cut for glucose determination were detected with an ACCU-CHEK™ glucometer (Roche, ACCU-CHEK® Active), and insulin levels were determined with Rat/Mouse Insulin Elisa kit (Millipore, Billerica, Mass. USA). For the OGTT, after the measurement of the basal glucose concentration (T=−30 min), mice received an oral glucose challenge at 2 g/kg and glucose values were determined by glucometer at 0, 15, 30, 60, 90 and 120 min.

normal C57BL/6J mice = assay: Induction of small β-cell clusters in normal mice; format: in vivo; settings: for number of islets, islet size ranging from 2.1 to 0.7: normal female C57BL/6J mice, 25 mg/kg per day for 10 days, islet size as Log [μm^2], FIG. 7; for body weight, blood glucose, plasma insulin, pancreas insulin, or pancreas weight: compared to saline group
Description: After a 1-week acclimation, C57BL/6J female mice were randomly divided into 4 groups. The two control groups received either 10 mL/kg sterile normal saline (n=4) or scrambled peptide (Peptide 3, 25 mg/kg) (n=5) via subcutaneous injection for 10 days. The other two groups received INGAP-PP (Peptide 1) or INGAP-PP analog Peptide 7 at a dose of 25 mg/kg per day respectively (n=7 per group) for the same period. Body weight and 6 hour fasting blood glucose were measured before treatment and after the last dosing of treatment. Plasma and pancreatic insulin were also measured at the end of the study. On day 11, the pancreas was removed from each animal, cleared of fat and lymph nodes, weighed, and fixed in 10% neutral buffered formalin (NBF) for no longer than 24 hours before processing for morphometric analysis.
Immunohistochemistry analysis was used to determine pancreatic islet size distribution.

[4] = normal mice, 25 mg/kg sc for 10 days

Ac-IGLHDPSHGTLPAGS-NH2 [Peptide 29, Ac-IGLHDPSHGTLPAGS-NH2]
stability in mouse plasma [1]: good stability in mouse plasma and were more stable than INGAP-PP

Ac-IGLHDPSHGTLPAGS-OH [Peptide 12, Ac-IGLHDPSHGTLPAGS-OH]
glucose-stimulated insulin secretion versus islets without peptides (pancreatic islets): released significantly more insulin | PK properties (AUC and Cmax) compared to INGAP-PP (Pharmacokinetics in rat): marked improved PK properties

Ac-IGLHDPTQGTEPAGE-OH [Peptide 52, Ac-IGLHDPTQGTEPAGE-OH]
stability in mouse plasma [1]: good stability in mouse plasma and were significantly more stable than HIP

Ac-IGLHDPTQGTEPNGE-OH [Peptide 54, Ac-IGLHDPTQGTEPNGE-OH]
stability in mouse plasma [1]: good stability in mouse plasma and were significantly more stable than HIP

GLP-1: Glucagon like peptide-1, positive control at 100 nM in GSIS (HAEGTFTSDVSSYLEGQAAKEFIAWLVKGR; ends and bridges not checked; UniProt P01275 98-127, looked up) [reference compound]
glucose-stimulated insulin secretion versus islets without peptides (pancreatic islets): released significantly more insulin

H-IGLHAPSHGTLPAGS-OH [Peptide 8]
stability in culture medium [2]: significantly more stable than INGAP-PP peptide

H-IGLHDPSHGTLPAGS-OH [Peptide 7, H-IGLHDPSHGTLPAGS-OH]
percentage increase in cell number (ARIP cells): significantly higher percentage increase in cell number | stability in culture medium [2]: significantly more stable than INGAP-PP peptide | body weight or pancreas weight [3]: did not affect | plasma insulin levels ([3]; 25 mg/kg dose group, end of 20-day period, FIG. 6B): significantly different from saline controls and almost restored to the level of the naive group | glucose tolerance (OGTT) ([3]; OGTT 2 g/kg glucose, day 21, FIG. 6C): improved glucose tolerance | number of islets, islet size ranging from 2.1 to 0.7 (normal C57BL/6J mice): increased significantly | body weight, blood glucose, plasma insulin, pancreas insulin, or pancreas weight (normal C57BL/6J mice; [4]): did not affect

H-IGLHDPSHGTLPNGS-OH [Peptide 1, H-IGLHDPSHGTLPNGS-OH, reference compound]
body weight or pancreas weight [3]: did not affect | number of islets, islet size ranging from 2.1 to 0.7 (normal C57BL/6J mice): only observed in islet size of 2.1 | body weight, blood glucose, plasma insulin, pancreas insulin, or pancreas weight (normal C57BL/6J mice; [4]): did not affect | glucose-stimulated insulin secretion versus islets without peptides (pancreatic islets): no stimulation

H-SHPNGSGTIGLHDPL-OH [Peptide 3, H-SHPNG SGTIG LHDPL-OH]
all parameters measured, versus normal saline (normal C57BL/6J mice; [4]): no difference | body weight, blood glucose, plasma insulin, pancreas insulin, or pancreas weight (normal C57BL/6J mice; [4]): did not affect
